Laboratory results from patent publication US12077503B2, “Substituted cyclic amides and their use as herbicides” (FMC CORPORATION, priority 2015, dated 2024).

What was measured:
Assay type in all cases: in vivo
[1] = test system: giant foxtail (Setaria faberi); assay: Test G Post-Emergence Protocol; conditions: Setaria faberi, post-emergence, 312 h, read-out: Foxtail, Giant damage rating; for pest or weed control at 15.625 g/ha: 15.625 g ai/ha, evaluated after 13 days (100=total damage to plant; 0=no damage to plant); for pest or weed control at 62.5 g/ha: 62.5 g ai/ha; for pest or weed control at 62.5 g/ha / pest or weed control at 250 g/ha: evaluated after 13 days, 100=total damage to plant, 0=no damage to plant; for pest or weed control at 250 g/ha: 250 g ai/ha
Procedure, shortened: (§1)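 Pot-grown seedlings, 8 days old, raised in a glasshouse at 24/16 °C day/night with 14 h light and 65% humidity, were sprayed post-emergence with test compound in acetone/water (50:50) plus 0.5% Tween 20 at 15.625, 62.5 or 250 g/ha. Damage was scored visually 13 days later on a 0–100 scale (100 = total damage).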

[2] = test system: ivy-leaved morning glory (Ipomoea hederacea); assay: Test G Post-Emergence Protocol; conditions: Ipomoea, post-emergence, 312 h, read-out: Morningglory, Ivy-leaved damage rating; for pest or weed control at 15.625 g/ha: 15.625 g ai/ha, evaluated after 13 days (100=total damage to plant; 0=no damage to plant); for pest or weed control at 62.5 g/ha: 62.5 g ai/ha; for pest or weed control at 62.5 g/ha / pest or weed control at 250 g/ha: evaluated after 13 days, 100=total damage to plant, 0=no damage to plant; for pest or weed control at 250 g/ha: 250 g ai/ha
Procedure, shortened: as §1

[3] = test system: redroot pigweed (Amaranthus retroflexus); assay: Test G Post-Emergence Protocol; conditions: Amaranthus retroflexus, post-emergence, 312 h, read-out: Pigweed, Redroot damage rating; for pest or weed control at 15.625 g/ha: 15.625 g ai/ha, evaluated after 13 days (100=total damage to plant; 0=no damage to plant); for pest or weed control at 62.5 g/ha: 62.5 g ai/ha; for pest or weed control at 62.5 g/ha / pest or weed control at 250 g/ha: evaluated after 13 days, 100=total damage to plant, 0=no damage to plant; for pest or weed control at 250 g/ha: 250 g ai/ha
Procedure, shortened: as §1

[4] = test system: barnyardgrass (Echinochloa crus-galli); assay: Test G Post-Emergence Protocol; conditions: Echinochloa crus-galli, post-emergence, 312 h, read-out: Barnyardgrass damage rating; for pest or weed control at 15.625 g/ha: 15.625 g ai/ha, evaluated after 13 days (100=total damage to plant; 0=no damage to plant); for pest or weed control at 62.5 g/ha: 62.5 g ai/ha; for pest or weed control at 62.5 g/ha / pest or weed control at 250 g/ha: evaluated after 13 days, 100=total damage to plant, 0=no damage to plant; for pest or weed control at 250 g/ha: 250 g ai/ha
Procedure, shortened: as §1

[5] = test system: velvetleaf (Abutilon theophrasti); assay: Test G Post-Emergence Protocol; conditions: Abutilon theophrasti, post-emergence, 312 h, read-out: Velvetleaf damage rating; for pest or weed control at 15.625 g/ha: 15.625 g ai/ha, evaluated after 13 days (100=total damage to plant; 0=no damage to plant); for pest or weed control at 62.5 g/ha: 62.5 g ai/ha; for pest or weed control at 62.5 g/ha / pest or weed control at 250 g/ha: evaluated after 13 days, 100=total damage to plant, 0=no damage to plant; for pest or weed control at 250 g/ha: 250 g ai/ha
Procedure, shortened: as §1

corn (Zea mays) [6] = assay: Test G Post-Emergence Protocol; conditions: Zea mays, post-emergence, 312 h, read-out: Corn damage rating; for plant injury at 15.625 g/ha: 15.625 g ai/ha, evaluated after 13 days (100=total damage to plant; 0=no damage to plant); for plant injury at 62.5 g/ha: 62.5 g ai/ha; for plant injury at 62.5 g/ha / plant injury at 250 g/ha: evaluated after 13 days, 100=total damage to plant, 0=no damage to plant; for plant injury at 250 g/ha: 250 g ai/ha
Procedure, shortened: as §1

[7] = test system: giant foxtail (Setaria faberi); assay: Test G Pre-Emergence Protocol; conditions: Setaria faberi, pre-emergence, 312 h, evaluated after 13 days; for pest or weed control at 15.625 g/ha: 15.625 g ai/ha; for pest or weed control at 15.625 g/ha / pest or weed control at 250 g/ha: read-out: Foxtail, Giant damage rating (100=total damage to plant; 0=no damage to plant); for pest or weed control at 62.5 g/ha: 62.5 g ai/ha, 100=total damage to plant, 0=no damage to plant, read-out: Foxtail, Giant damage rating; for pest or weed control at 250 g/ha: 250 g ai/ha
Procedure, shortened: (§2)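 Glasshouse pre-emergence test: soil-sown seeds, sprayed after 1 d at 15.625, 62.5 or 250 g/ha. Conditions 24/16° C day/night, 14 h light, 65% humidity, watering twice daily. Rating 13 d post-spray (100 = total damage).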

[8] = test system: ivy-leaved morning glory (Ipomoea hederacea); assay: Test G Pre-Emergence Protocol; conditions: Ipomoea, pre-emergence, 312 h, evaluated after 13 days; for pest or weed control at 15.625 g/ha: 15.625 g ai/ha; for pest or weed control at 15.625 g/ha / pest or weed control at 250 g/ha: read-out: Morningglory, Ivy-leaved damage rating (100=total damage to plant; 0=no damage to plant); for pest or weed control at 62.5 g/ha: 62.5 g ai/ha, 100=total damage to plant, 0=no damage to plant, read-out: Morningglory, Ivy-leaved damage rating; for pest or weed control at 250 g/ha: 250 g ai/ha
Procedure, shortened: as §2

[9] = test system: redroot pigweed (Amaranthus retroflexus); assay: Test G Pre-Emergence Protocol; conditions: Amaranthus retroflexus, pre-emergence, 312 h, evaluated after 13 days; for pest or weed control at 15.625 g/ha: 15.625 g ai/ha; for pest or weed control at 15.625 g/ha / pest or weed control at 250 g/ha: read-out: Pigweed, Redroot damage rating (100=total damage to plant; 0=no damage to plant); for pest or weed control at 62.5 g/ha: 62.5 g ai/ha, 100=total damage to plant, 0=no damage to plant, read-out: Pigweed, Redroot damage rating; for pest or weed control at 250 g/ha: 250 g ai/ha
Procedure, shortened: as §2

[10] = test system: barnyardgrass (Echinochloa crus-galli); assay: Test G Pre-Emergence Protocol; conditions: Echinochloa crus-galli, pre-emergence, 312 h, evaluated after 13 days; for pest or weed control at 15.625 g/ha: 15.625 g ai/ha; for pest or weed control at 15.625 g/ha / pest or weed control at 250 g/ha: read-out: Barnyardgrass damage rating (100=total damage to plant; 0=no damage to plant); for pest or weed control at 62.5 g/ha: 62.5 g ai/ha, 100=total damage to plant, 0=no damage to plant, read-out: Barnyardgrass damage rating; for pest or weed control at 250 g/ha: 250 g ai/ha
Procedure, shortened: as §2

[11] = test system: velvetleaf (Abutilon theophrasti); assay: Test G Pre-Emergence Protocol; conditions: Abutilon theophrasti, pre-emergence, 312 h, evaluated after 13 days; for pest or weed control at 15.625 g/ha: 15.625 g ai/ha; for pest or weed control at 15.625 g/ha / pest or weed control at 250 g/ha: read-out: Velvetleaf damage rating (100=total damage to plant; 0=no damage to plant); for pest or weed control at 62.5 g/ha: 62.5 g ai/ha, 100=total damage to plant, 0=no damage to plant, read-out: Velvetleaf damage rating; for pest or weed control at 250 g/ha: 250 g ai/ha
Procedure, shortened: as §2

corn (Zea mays) [12] = assay: Test G Pre-Emergence Protocol; conditions: Zea mays, pre-emergence, 312 h, evaluated after 13 days; for plant injury at 15.625 g/ha: 15.625 g ai/ha; for plant injury at 15.625 g/ha / plant injury at 250 g/ha: read-out: Corn damage rating (100=total damage to plant; 0=no damage to plant); for plant injury at 62.5 g/ha: 62.5 g ai/ha, 100=total damage to plant, 0=no damage to plant, read-out: Corn damage rating; for plant injury at 250 g/ha: 250 g ai/ha
Procedure, shortened: as §2

SMILES | pest or weed control at 15.625 g/ha [1] | pest or weed control at 62.5 g/ha [1] | pest or weed control at 250 g/ha [1] | pest or weed control at 15.625 g/ha [2] | pest or weed control at 62.5 g/ha [2] | pest or weed control at 250 g/ha [2] | pest or weed control at 15.625 g/ha [3] | pest or weed control at 62.5 g/ha [3] | pest or weed control at 250 g/ha [3] | pest or weed control at 15.625 g/ha [4] | pest or weed control at 62.5 g/ha [4] | pest or weed control at 250 g/ha [4] | pest or weed control at 15.625 g/ha [5] | pest or weed control at 62.5 g/ha [5] | pest or weed control at 250 g/ha [5] | plant injury at 15.625 g/ha (corn (Zea mays) [6]) | plant injury at 62.5 g/ha (corn (Zea mays) [6]) | plant injury at 250 g/ha (corn (Zea mays) [6]) | pest or weed control at 15.625 g/ha [7] | pest or weed control at 62.5 g/ha [7] | also measured
C=C(C)c1cccc([C@@H]2CN(C)C(=O)[C@H]2C(=O)Nc2cccc(F)c2C)c1 (racemic) [Compound 1828] | 70% | 80% | 80% | 20% | 60% | 70% | 0% | 0% | 20% | 30% | 80% | 80% | 0% | 20% | 10% | 0% | 10% | 70% | 80% | 90% | pest or weed control at 250 g/ha [7]: 90%; pest or weed control at 15.625 g/ha [8]: 0%; pest or weed control at 62.5 g/ha [8]: 0%; pest or weed control at 250 g/ha [8]: 30%; pest or weed control at 15.625 g/ha [9]: 0%; pest or weed control at 62.5 g/ha [9]: 0%; pest or weed control at 250 g/ha [9]: 0%; pest or weed control at 15.625 g/ha [10]: 70%; pest or weed control at 62.5 g/ha [10]: 80%; pest or weed control at 250 g/ha [10]: 90%; pest or weed control at 15.625 g/ha [11]: 0%; pest or weed control at 62.5 g/ha [11]: 0%; pest or weed control at 250 g/ha [11]: 30%; plant injury at 15.625 g/ha (corn (Zea mays) [12]): 0%; plant injury at 62.5 g/ha (corn (Zea mays) [12]): 10%; plant injury at 250 g/ha (corn (Zea mays) [12]): 70%
CN1C[C@@H](c2cccc(Oc3ccc(F)cc3)c2)[C@H](C(=O)Nc2cccc(F)n2)C1=O (racemic) [Compound 1829] | 70% | 80% | 80% | 20% | 20% | 30% | 0% | 20% | 60% | 0% | 60% | 70% | 0% | 0% | 20% | 20% | 0% | 60% | 70% | 80% | pest or weed control at 250 g/ha [7]: 90%; pest or weed control at 15.625 g/ha [8]: 0%; pest or weed control at 62.5 g/ha [8]: 0%; pest or weed control at 250 g/ha [8]: 0%; pest or weed control at 15.625 g/ha [9]: 0%; pest or weed control at 62.5 g/ha [9]: 0%; pest or weed control at 250 g/ha [9]: 30%; pest or weed control at 15.625 g/ha [10]: 60%; pest or weed control at 62.5 g/ha [10]: 70%; pest or weed control at 250 g/ha [10]: 90%; pest or weed control at 15.625 g/ha [11]: 0%; pest or weed control at 62.5 g/ha [11]: 0%; pest or weed control at 250 g/ha [11]: 20%; plant injury at 15.625 g/ha (corn (Zea mays) [12]): 0%; plant injury at 62.5 g/ha (corn (Zea mays) [12]): 10%; plant injury at 250 g/ha (corn (Zea mays) [12]): 60%
